Assay type in all cases: biochemical
The target in one test is T1, FLT3 (Homo sapiens, UniProt P36888).
T1 construct: purchased Reaction Biology Corp. (Kinase HotSpot service)
T1 sequence (P36888 27-993): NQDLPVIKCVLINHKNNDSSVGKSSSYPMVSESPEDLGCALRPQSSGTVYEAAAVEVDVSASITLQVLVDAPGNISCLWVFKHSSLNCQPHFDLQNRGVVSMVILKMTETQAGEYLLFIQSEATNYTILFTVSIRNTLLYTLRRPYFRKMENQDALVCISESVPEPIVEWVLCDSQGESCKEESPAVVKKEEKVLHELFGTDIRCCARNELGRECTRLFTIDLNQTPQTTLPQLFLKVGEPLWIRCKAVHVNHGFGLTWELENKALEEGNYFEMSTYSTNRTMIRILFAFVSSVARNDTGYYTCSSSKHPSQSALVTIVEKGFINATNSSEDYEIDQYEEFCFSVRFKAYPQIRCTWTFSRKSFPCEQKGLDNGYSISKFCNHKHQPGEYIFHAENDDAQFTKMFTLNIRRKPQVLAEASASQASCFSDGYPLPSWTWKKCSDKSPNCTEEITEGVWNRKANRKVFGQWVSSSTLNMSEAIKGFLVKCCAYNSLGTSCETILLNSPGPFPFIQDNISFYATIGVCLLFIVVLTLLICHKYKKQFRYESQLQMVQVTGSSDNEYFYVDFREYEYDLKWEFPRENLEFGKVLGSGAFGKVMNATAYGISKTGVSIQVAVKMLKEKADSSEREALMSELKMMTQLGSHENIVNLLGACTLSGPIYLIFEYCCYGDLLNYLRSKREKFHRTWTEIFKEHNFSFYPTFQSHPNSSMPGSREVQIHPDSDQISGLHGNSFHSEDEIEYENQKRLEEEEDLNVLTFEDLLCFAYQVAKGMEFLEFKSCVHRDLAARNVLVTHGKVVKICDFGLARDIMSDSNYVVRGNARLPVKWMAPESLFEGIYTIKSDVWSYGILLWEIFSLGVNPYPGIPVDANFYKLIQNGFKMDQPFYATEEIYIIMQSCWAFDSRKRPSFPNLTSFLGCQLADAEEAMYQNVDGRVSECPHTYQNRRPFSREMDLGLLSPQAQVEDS
Nature of the test: Reaction Biology Kinase HotSpot radiometric kinase assay. The note with it: for IC50: FLT3 wild type, read-out: IC50 against FLT3.

The test system of test [1] is other kinases including FMS and cKit. Put plainly: Kinase panel screening, overall selectivity. The conditions noted are these: 36 different kinases, single dose of 10 µM. Here is the method:
Next, we investigated kinase panel screening of 7d and 7b over 36 different kinases at a single dose of 10 µM (Figure 5). […] High selectivity over cKit might be an opportunity to avoid myelosuppression toxicity, which was reported from a dual FLT3/cKit inhibitor[19–22]. It is a valuable result to secure such a kinase selectivity profile considering the similarities of the same type III receptor tyrosine kinase (FMS, cKit and FLT3).
3. Evaluation of IC50 and Selected Kinase Profiling
We used Reaction Biology Corp. Kinase HotSpotSM service (www.reactionbiology.com) for IC50 determination of all compounds and kinase profile. Assay protocol: In a final reaction volume of 25 μL, Peptide substrate, [[…]], 5 µM, ATP 10 µM, FLT3(h) (5-10 […]
mU) is incubated with 25 mM Tris pH 7.5, 0.02 mM EGTA, 0.66 mg/mL myelin basic protein, 10 mM Mg Acetate and [γ-33P-ATP] (specific activity approx. 500 cpm/pmol, concentration as required). The reaction is initiated by the addition of the Mg-ATP mix. After incubation for 40 minutes at room temperature, the reaction is stopped by the addition of 5 μL of a 3% phosphoric acid solution. 10 μL of the reaction is then spotted onto a P30 filtermat and washed three times for 5 minutes in 75 mM phosphoric acid and once in methanol prior to drying and […]

The next test deals with T2, RIPK3 (Homo sapiens, UniProt Q9Y572).
T2 construct: purchased Reaction Biology Corp. (Kinase HotSpot service)
Put plainly: Reaction Biology Kinase HotSpot radiometric kinase assay. The note with it: read-out: GW5074 IC50, control compound, footnote a: data for GW5074.

The target of another test is T3, ERK1 (Homo sapiens, UniProt P27361).
T3 construct: purchased Reaction Biology Corp. (Kinase HotSpot service)
The description is as above. The conditions noted are these: control compound, footnote b: data for SCH772984.

Molecules are shown by their SMILES. “Also recorded” adds a separate entry of the source.

T2 sequence (Q9Y572 whole entry): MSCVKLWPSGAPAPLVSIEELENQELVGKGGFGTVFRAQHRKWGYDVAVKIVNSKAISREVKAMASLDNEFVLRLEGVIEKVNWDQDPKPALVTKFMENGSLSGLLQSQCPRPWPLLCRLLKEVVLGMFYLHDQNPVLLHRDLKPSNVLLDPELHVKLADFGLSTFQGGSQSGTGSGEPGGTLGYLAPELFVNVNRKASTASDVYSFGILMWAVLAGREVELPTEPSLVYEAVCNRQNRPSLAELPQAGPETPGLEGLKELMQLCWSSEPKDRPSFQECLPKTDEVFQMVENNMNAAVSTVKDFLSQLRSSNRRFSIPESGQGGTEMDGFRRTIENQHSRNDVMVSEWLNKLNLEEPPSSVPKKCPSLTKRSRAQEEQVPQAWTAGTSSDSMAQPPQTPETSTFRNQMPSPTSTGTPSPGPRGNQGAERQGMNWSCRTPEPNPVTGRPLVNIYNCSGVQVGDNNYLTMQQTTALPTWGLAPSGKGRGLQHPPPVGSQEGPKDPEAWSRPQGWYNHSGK
T3 sequence (P27361 whole entry): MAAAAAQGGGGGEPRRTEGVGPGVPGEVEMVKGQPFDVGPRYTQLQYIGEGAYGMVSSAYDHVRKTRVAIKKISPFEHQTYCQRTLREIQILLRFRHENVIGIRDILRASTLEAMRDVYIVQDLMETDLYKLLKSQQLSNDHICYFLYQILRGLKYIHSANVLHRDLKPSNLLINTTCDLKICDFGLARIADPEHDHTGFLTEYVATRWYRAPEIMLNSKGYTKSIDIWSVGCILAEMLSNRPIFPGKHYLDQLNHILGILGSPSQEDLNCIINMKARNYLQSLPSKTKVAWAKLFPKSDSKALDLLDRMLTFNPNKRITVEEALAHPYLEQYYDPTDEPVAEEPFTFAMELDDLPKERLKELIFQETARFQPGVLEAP

For the compound `Cc1oncc1C(=O)Nc1ccc2cnc(-c3cc(N4CCOCC4)cc(C(F)(F)F)c3)nc2c1` [Compound 7b], on FLT3, the “inhibitory activity towards FLT3 (in words)” value was “maintained the activity; also recorded: maintained inhibitory activity” and the IC50 (as a rule, the concentration at which inhibition is half-maximal) came out at 3980 nM. Further, the “activity on other kinases in panel (in words)” value in test [1] is “almost no activity”.

As for `Cc1cn(-c2cc(-c3ncc4ccc(NC(=O)c5cnoc5C)cc4n3)cc(C(F)(F)F)c2)cn1` [Compound 7c], at FLT3, the “inhibitory activity towards FLT3 (in words)” value is recorded as “maintained the activity; also recorded: maintained inhibitory activity” and the IC50 came out at 1580 nM.

For `CCN1CCN(Cc2cc(-c3ncc4ccc(NC(=O)c5cnoc5C)cc4n3)cc(C(F)(F)F)c2)CC1` [Compound 7e], the “inhibitory activity towards FLT3 (in words)” value at FLT3 was “maintained the activity; also recorded: maintained inhibitory activity”. The “decrease of activity towards FLT3 relative to 7d” value at FLT3 (compared with 7d) is given as “about 10 fold”.

Take `Cc1oncc1C(=O)Nc1ccc2cnc(-c3cnn(-c4ccccc4)c3C(F)(F)F)nc2c1` [Compound 7h]: the “inhibitory activity towards FLT3 (in words)” value at FLT3 is recorded as “loss of activity”.

With `COc1ccc(/C=C/c2ncc3ccc(NC(=O)c4cnoc4C)cc3n2)cc1` [Compound 7j], on FLT3, the “inhibitory activity towards FLT3 (in words)” value is recorded as “maintained inhibitory activity” and the IC50 came to 4700 nM.

With `Cc1oncc1C(=O)Nc1ccc2cnc(-c3cc(C(C)(C)C)on3)nc2c1` [Compound 7l], the “inhibitory activity towards FLT3 (in words)” value on FLT3 is reported as “did not show inhibitory activity towards FLT3 or were very weak”.

As for `Cc1oncc1C(=O)Nc1ccc2cnc(-c3ccc4[nH]ncc4c3)nc2c1` [Compound 7m], on FLT3, the “inhibitory activity towards FLT3 (in words)” value is on record as “maintained inhibitory activity” and the IC50 amounted to 790 nM.

As to `Cc1oncc1C(=O)Nc1ccc2cnc(-c3cc(OC4CCN(C)CC4)cc(C(F)(F)F)c3)nc2c1` [Compound 7n], on FLT3, the “inhibitory activity towards FLT3 (in words)” value is “maintained the activity; also recorded: maintained inhibitory activity” and the IC50 was determined as 3590 nM.

For `CC(=O)N1CCC(c2ncc3ccc(NC(=O)c4cnoc4C)cc3n2)CC1` [Compound 7o], the “inhibitory activity towards FLT3 (in words)” value against FLT3 is “did not show inhibitory activity towards FLT3 or were very weak”.

As to `Cc1oncc1C(=O)Nc1ccc2cnc(-c3ccncc3)nc2c1` [Compound 7p], on FLT3, the “inhibitory activity towards FLT3 (in words)” value is on record as “did not show inhibitory activity towards FLT3 or were very weak”.

Consider `Cc1oncc1C(=O)Nc1ccc2cnc(-c3ccccn3)nc2c1` [Compound 7q], for which the “inhibitory activity towards FLT3 (in words)” value against FLT3 is recorded as “did not show inhibitory activity towards FLT3 or were very weak”.

As to `O=C1Nc2ccc(I)cc2/C1=C/c1cc(Br)c(O)c(Br)c1` [GW5074, reference compound], the IC50 on RIPK3 was determined as 1650 nM.

The compound `O=C(Nc1ccc2[nH]nc(-c3ccncc3)c2c1)[C@@H]1CCN(CC(=O)N2CCN(c3ccc(-c4ncccn4)cc3)CC2)C1` [SCH772984, reference compound] had an IC50 against ERK1 of 4.47 nM.

The values above are taken from paper PMC7241567 (Journal of Enzyme Inhibition and Medicinal Chemistry, 2020).
